The nature of data set [1]: Peptide titrations by SUVs followed by tryptophan fluorescence (solution-to-membrane partition). Type of data set: physicochemical. Conditions: POPC:POPG 8:2 SUVs, buffer A pH 7.4, 25 °C, tryptophan fluorescence ratio 330/370 nm; S.D. within ± 10%. How it is done: Lipid vesicles preparation
Small unilamellar vesicles (SUVs) and large unilamellar vesicles (LUVs) were prepared with POPC and POPG at a molar ratio of 8:2, at a lipid concentration of 10 mM in buffer A, as previously described 1. Briefly, SUVs and LUVs were prepared by reverse phase evaporation and filtered through polycarbonate filters of 1 μm and 0.2 μm of pore size diameter to obtain L UV. SUVs were further sonicated. The hydrodynamic diameters and mean net charge of the vesicles were measured by dynamic light scattering (DLS) and electrophoretic mobility, respectively, using a ZetaSizer NanoZS (Malvern Pananalytical , Orsay, France) 11.
Peptide titrations bySUV s and CaM followed by tryptophan fluorescence
Titrations were carried out with a FP-8200 Jasco spectrofluorimeter, equipped with a Pelt ie r - thermostated ETC-272T at 25°C. A bandwidth of 5 nm was used for both excitation and […]
(Hellma, France) with constant stirring. Fluorescence emission was recorded between 300 and […]
400 nm at a scan rate of 100 nm/min, with an excitation wavelength of 280 nm. Fluorescence emission spectra were corrected for SUV or CaM baselines . Fluorescence intensity ratio at 330 nm over 370 nm was use d to measure the partition coefficient (K X) of peptides between the solution andmembrane s 1, 12 and the affinity (K d) of peptides for CaM 13.
Determination of partition coefficient KX and dissociation constant Kd from […]
The partition coefficient KX is defined as the ratio of protein in the lipid (PL) and in buffer […]
(PW) pha se s 12, 14, expressed by: KKXX = [LL ]? , giving[PPWW ] [PPWW ]= [WW], where [W] the […]
concentration of water (55.5 M) and [L] the lipid concentration.
The fraction of peptide partitioned into the membrane, fPL, is equal to:
ffPPLL = [PPLL ][PPTT ]= [PPLL ][PPLL ]+[PPWW ]= 11+([PPWW ])= 11+( [WW]), where PT is the total concentration of peptides [PP TT ]= [PP LL ]+ [PP WW ]. […]
The equations a re fitted to the experimental data using the KaleidaGraph software, providing the KX and K d value s. The partition coefficient is related to the apparent dissociation constant:
KKXX × KKdd = [WW ] and to the free energy of partition ΔG Kx = -RTln(K X), where ΔG is the free energy in kcal/mol, R the gas constant (R = 1.98 x 10-3 kcal/mol/K) and T the temperature i n Kelvin. The free energy of peptide CaM interaction, ∆G Kd, is given by ΔG Kd = RTln(K d).
Sedimentation velocity-Analytical ultracentrifugation (SV -AUC) […]
ratio 1:1 (at 70 µM each). Samples were incubated 2h at 20°C in the ultracentrifuge and, then span at 42,000 rpm in an An-50 Ti rotor. […]

A short description of data set [2]: Peptide translocation across droplet interface bilayers (DIB). Type of data set: in vitro ADME. Conditions: TAMRA (dye)-labeled peptide in cis, 15 min; for Peptide in trans droplet, 5 µM holo-CaM in trans: POPC:POPG 9:1 bilayer, CaCl2 2 mM cis vs 0.2 mM trans, epifluorescence, four to seven independent trials. How it is done:
weak fluorescence signal. […]
fluorescence signal. The samples were prepared at the following final concentrations: 10 µM […]
concentration of CDZ wa s 14.5 mM in 100% DMSO. Addition of CDZ at a final concentration of 40 µ M gives a final concentration of less than 0.3 % of DMSO in the […]
Peptide translocation followed by droplet interface bilayerexperiments
An aqueous phase is prepared with buffer D or E and the oil phase is prepared with 15 % (v/v) of chloroform and 0.08%(w/v) of lipids (POP C: POP G at a 9:1molar ratio) in squalene.
A population of droplets is obtained by adding 2 µL of the aqueous phase to 20 µL of the oil phase before briefly shaking the mixture to create an invert emulsion. Two droplet populations were prepared: one containing the TAMRA-labeled peptide in buffer D , the “source”, cis-droplets and the other one containing buffer D or E, or in the presence or in the absence of calmodulin, the “capture”, trans -droplets. […] The fluorescence signals of the “source” and the “capture” droplets were monitored by epifluorescence microscopy for 15 minutes with an Olympus microscope and a MicroMax camera (Princeton Instrument). […]
Quantification of the translocation process is possible thanks to the analysis of the fluorescence images of the droplet pairs. Even if fluorescence is not directly proportional to peptide concentration due to photo-bleaching and small volume variations, one can hypothesize that the fluorescence intensities of the “source” and the “capture” droplets are proportional to the ratio of their concentrations. Moreover, as the initial concentration in the “source” droplet is known and as the total amount of peptide is conserved during the experience, we can write that: CCss (tt = 0) × VVss = CCss (tt ) × VVss + CCcc (tt ) × VVcc , where Ci is the concentration of the droplet i, Vi its volume, which was determined from microscopy images (i=”s” for the source droplet and “c” for the capture droplet). […]
CCcc = CCss (tt = 0) × VVss where F i is the fluorescence intensity measured fordroplet i. […]
analyzed in buffer C. […]

Turning to “Ac-ASAHWGQEALQGAQAVAAAQELVHAIALMTQ-NH2 [P454 R12E]”, in data set [1], the “Partition coefficient KX” value was 80 ×10^3. Moreover, the “Peptide in trans droplet, 5 µM holo-CaM in trans” value in data set [2] is “do not accumulate”. Also, the “Peptide in trans droplet, 100 µM CaM in trans” value in data set [2] (calcium gradient 2 mM cis vs 0.2 mM trans, five to seven independent trials) is reported as “significant accumulation”.
Take `CC[C@H](C)[C@H](NC(=O)[C@H](CCCCN)NC(=O)[C@H](Cc1c[nH]c2ccccc12)NC(=O)[C@H](CC(C)C)NC(=O)[C@H](CC(C)C)NC(=O)[C@H](CC(=O)O)NC(=O)[C@@H](NC(=O)[C@H](CCCNC(=N)N)NC(=O)[C@H](CCC(=O)O)NC(=O)[C@H](CCCNC(=N)N)NC(=O)[C@H](CC(=O)O)NC(=O)[C@H](CC(C)C)NC(C)=O)[C@@H](C)CC)C(=O)N[C@@H](C)C(=O)N[C@@H](CCCNC(=N)N)C(=O)N[C@@H](C)C(=O)NCC(=O)N[C@@H](C)C(=O)N[C@@H](CCCNC(=N)N)C(=O)N[C@@H](CO)C(=O)N[C@@H](C)C(=O)N[C@H](C(=O)NCC(N)=O)C(C)C` [H-helix, reference compound]: the “Peptide in trans droplet, 5 µM holo-CaM in trans” value in data set [2] is “do not accumulate”.
